From US12667574B2, “Paraxanthine-based bioactive composition and method of use thereof” (PX ING, LLC, priority 2021, dated 2026)

Key:
[1] = tested on: dopamine (dopa); test: Dopamine concentration (second Example 4); format: in vivo, rats; details: oral 14 days
Protocol: (§1) Distilled water was provided ad libitum. […] Ltd (Bangalore, India).
(§2) The following HED were used in this study: 50 mg paraxanthine, (ENFINITY™, Ingenious Ingredients, L.P Lewisville, TX, USA; rat dose: 5.141 mg/kg bw/day); 25 mg L-Theanine (rat dose: 2.570 mg/kg bw), and 50 mg paraxanthine plus 25 mg L-Theanine. 0.5% Carboxy Methyl Cellulose sodium was used as vehicle and the test item formulations were prepared daily. […] The last dose on day 14 was given 1 hour prior to testing.

[2] = tested on: male Swiss Albino mice; test: Treadmill endurance test (first Example 4, L-Theanine); format: in vivo; details: oral once daily 28 days, HED 50 mg paraxanthine, 25 mg L-Theanine
Protocol: as §1
The following HED were used in this study: 50 mg paraxanthine, (ENFINITY™ Ingenious Ingredients, L.P Lewisville, TX, USA; mouse dose: 10.275 mg/kg bw/day); 25 mg L-Theanine (mouse dose: 5.137 mg/kg bw), and 50 mg paraxanthine plus 25 mg L-Theanine. 0.5% Carboxy Methyl Cellulose sodium was used as vehicle and the test item formulations were prepared daily.
During the treatment period, exercise training was completed using a motorized treadmill (Exer 3/6, Columbus Instruments international, OH, USA) at a moderate intensity of 20 cm/sec as maximal running speed, an incline of ten degrees and a shock intensity of 0.2 mA, for ten minutes. The speed of the treadmill was manually adjusted by increasing the belt speed by 5 cm/sec every two minutes throughout the total duration of ten minutes. All animals were adapted to this procedure daily 60 minutes after dosing for five days in a week during the treatment period. 1.3. Treadmill Endurance Test
Muscle endurance was accomplished on a motorized treadmill at a low to moderate intensity of 5-50 cm/sec as maximal running speed, an incline of ten degrees and a shock intensity of 0.2 mA, with the belt speed being increased by 5 cm/sec every two minutes until it reaches 50 cm/sec. Animals were subjected to the treadmill test until exhaustion.

[3] = tested on: male Swiss Albino Wistar rats; test: Walter Morris Maze test (second Example 4, L-Theanine); format: in vivo; details: oral 14 days
Protocol: as §1, §2
The Walter Morris Maze test consisted of a circular pool in a room with geometric shapes on the wall serving as spatial cues. The pool, which is 70 cm in diameter and painted with black color, filled with 13 cm depth of 25±1° C. water. A platform (6 cm diameter) was placed into one quadrant of the pool and submerged 1 cm below the water surface. For the training, all rats were trained to locate the submerged platform in a constant location. The training day consisted of four trials. During training, a rat started at one of four starting points and allowed to swim until it located the platform or until 60 seconds had elapsed. The rat was allowed to remain on the platform for 15 seconds before being dried off and later was transferred to a holding cage. […] The animals were continuously trained 4 times at 4 starting points continued daily for 4 days, the main trial was conducted on the 15th & 16th day and the latency of escaping onto the platform was recorded.

[4] = tested on: brain derived neuro factor, BDNF; test: BDNF level, neuroplasticity (second Example 4); format: in vivo, rats; details: oral 14 days
Protocol: as §1, §2

[5] = tested on: glutathione (GSH); test: Glutathione level (second Example 4); format: in vivo, rats; details: oral 14 days
Protocol: as §1, §2

[6] = tested on: acetylcholine (Ach); test: Acetylcholine concentration (second Example 4); format: in vivo, rats; details: oral 14 days
Protocol: as §1, §2

[7] = tested on: dopamine (dopa); test: Dopamine concentration (Example 3); format: in vivo, rats; details: oral 14 days
Protocol: as §1
(§3) 0.5% Carboxy Methyl Cellulose sodium was used as vehicle and the test item formulations were prepared daily. […] The last dose on day 14 was given 1 hour prior to testing.

[8] = tested on: male Swiss Albino Wistar rats; test: Walter Morris Maze test (Example 3); format: in vivo; details: oral 14 days
Protocol: Distilled water was provided ad libitum. […] Ltd (Bangalore, India). […] The last dose on day 14 was given 1 hour prior to testing. The Walter Morris Maze test consisted of a circular pool in a room with geometric shapes on the wall serving as spatial cues. The pool, which is 70 cm in diameter and painted with black color, filled with 13 cm depth of 25±1° C. water. A platform (6 cm diameter) was placed into one quadrant of the pool and submerged 1 cm below the water surface. For the training, all rats were trained to locate the submerged platform in constant location. The training day consisted of four trials. […] The rat was allowed to remain on the platform for 15 seconds before being dried off and later was transferred to a holding cage.

[9] = tested on: brain derived neuro factor, BDNF; test: BDNF level, neuroplasticity (Example 3); format: in vivo, rats; details: oral 14 days
Protocol: as §1, §3

[10] = tested on: glutathione (GSH); test: Glutathione level (Example 3); format: in vivo, rats; details: oral 14 days
Protocol: as §1, §3

[11] = tested on: acetylcholine (Ach); test: Acetylcholine concentration (Example 3); format: in vivo, rats; details: oral 14 days
Protocol: as §1, §3

CCNC(=O)CC[C@H](N)C(=O)O [L-Theanine, N5-ethyl-L-glutamine, reference compound]
dopamine (dopa) concentration ([1]; old rats): 473.03 ± 6.05 ng/L | dopamine (dopa) concentration ([1]; young rats): 528.18 ± 4.09 ng/L | distance travelled during treadmill exercise [2]: 295.17±6.11 m | escape latency ([3]; old rats (16-month-old)): 44.67 ± 2.16 s | escape latency ([3]; young rats (8-week-old)): 38.33 ± 2.07 s | BDNF ([4]; old rats): 789.1 ± 2.03 pg/mL | BDNF ([4]; young rats): 866 ± 8.66 pg/mL | glutathione (GSH) level ([5]; old rats): 23.87 ± 0.45 µg/mL | glutathione (GSH) level ([5]; young rats): 31.72 ± 0.53 µg/mL | acetylcholine (Ach) concentration ([6]; old rats): 55.89±1.05 U/mL | acetylcholine (Ach) concentration ([6]; young rats): 62.83±0.91 U/mL

C[N+](C)(C)CCOP(=O)([O-])OC[C@H](O)CO [alpha-GPC, L-Alpha glycerylphosphorylcholine, reference compound]
dopamine (dopa) concentration ([7]; old rats): 506.35 ± 2.82 ng/L | dopamine (dopa) concentration ([7]; young rats): 563.55 ± 7.98 ng/L | escape latency ([8]; old rats (16-month-old)): 39.83 ± 0.98 s | escape latency ([8]; young rats (8-week-old)): 34.83 ± 1.33 s | BDNF ([9]; old rats): 881.70 ± 10.41 µg/mL | BDNF ([9]; young rats): 881.70 ± 10.41 µg/mL | glutathione (GSH) level ([10]; old rats): 24.72 ± 0.48 µg/mL | glutathione (GSH) level ([10]; young rats): 31.72 ± 0.53 µg/mL | acetylcholine (Ach) concentration ([11]; old rats): 56.89±1.76 U/mL | acetylcholine (Ach) concentration ([11]; young rats): 65.89±1.64 U/mL
